We go through three compounds from patent publication EP0688336B1, “PEPTIDE BORONIC ACID DERIVATIVES HAVING PROTEASE INHIBITING ACTIVITY” (Novartis AG, priority 1993, dated 1994).

For data set [1], the target named is thrombin (Homo sapiens, UniProt P00734). As to conditions: cited from earlier work.
For data set [2] the following is noted: in vivo; cited from earlier work.
Data set [3] relates to pooled citrated human plasma. Kind of data set: In vitro coagulation assay: thrombin time (TT). In kind it is biochemical. As to conditions: final thrombin concentration 5 U/ml; 10 min at 37°C preincubation. On the procedure:
(§1) In vitro coagulation assays are performed with pooled citrated human plasma. Substance to be tested or solvent are incubated with plasma for 10 min at 37°C prior to assay. Thrombin time(TT) determinations are performed at a final thrombin concentration of 5 U/ml. Activated partial thromboplastin time (APTT) is determined by incubating 0.1 ml plasma ± substance to be tested with 0.1 ml purified soya bean phospholipid in ellagic acid (Actin-FS) for 4 min at 37°C and followed by the addition of 0.1 ml CaCl2 (50mM). […] With the compound of Example 1, prolongation of TT above 300 sec is achieved at 1.8 µM, elevation of APTT to 2x the control value is achieved at 4.4 µM.

For data set [4], the system named is pooled citrated human plasma. The experiment in a line: In vitro coagulation assay: activated partial thromboplastin time (APTT). Particulars: Actin-FS, 4 min at 37°C, CaCl2. Format: biochemical. The protocol: as §1
Data set [5] deals with Washed human platelets. The experiment in a line: In vitro platelet aggregation assay induced by thrombin. In kind it is cell-based. As to conditions: aggregation induced by 1 nM human thrombin. On the procedure: Washed human platelets are prepared by a modification of the method of Ardlie ([…]. 1970, 19:7-17). Washed platelet suspension (0.46 ml) is kept at 37°C and stirred at 1100 rpm. After the addition of the substance to be tested or solvent. the platelets are maintained for 2 min before aggregation is induced by 1 nM human thrombin. The extent of platelet aggregation is quantitated by the maximum aggregation amplitude and inhibition of aggregation rate observed in the absence of inhibitor.

The subject of data set [6] is thrombus formation. Kind of data set: Arterio-venous shunt thrombosis model. In kind it is in vivo. Particulars: rat. On the procedure: In the arterio-venous shunt thrombosis model in the rat, a modification of the model described by Butler et al. (Blood Coag. Fibrinol., Vol. 3, (1992), page 155), the compounds of the invention prevent thrombus formation in a dose dependent manner. Using the compound of Example 1, thrombus formation is inhibited by 21% at a dose of 0.3 mg/kg i.v. and blocked by a dose of 3 mg/kg i.v.

As usually defined, the IC50 is the concentration that inhibits the measured activity by half. The low end stands for greater potency, the high end for weaker potency.

Structures are written as SMILES.

As to `NC(N)=NCCC[C@H](NC(=O)[C@@H]1CCCN1C(=O)[C@H](N)Cc1ccccc1)C(=O)CCl` [D-Phe-Pro-Arg-CH2Cl], the inhibition in vitro in data set [1] is ~10^-8 M.
Take `N=C(N)NCCC[C@@H](C=O)NC(=O)[C@@H]1CCCN1C(=O)[C@H](N)Cc1ccccc1` [D-Phe-Pro-Arginal]: the inhibition in vitro in data set [1] is reported as ~10^-8 M. The LD50 value entry in data set [2] is given as “quite a low”.
For `CC(C)(C)OC(=O)NC(C[Si](C)(C)C)C(=O)N1CCCC1C(=O)NC(CCCCO)B1OC2CC3CC(C3(C)C)C2(C)O1` [Example 1, Boc-D-TMSal-Pro-NH-CH[(CH2)4OH]B-OPin], the “concentration at which prolongation of TT above 300 sec is achieved” value in data set [3] was determined as 1.8 µM. For the same compound, the “concentration at which elevation of APTT to 2x the control value is achieved” value in data set [4] is on record as 4.4 µM. In addition, inhibition in data set [5] was half-maximal at 3.8 nM (IC50). Also, the “thrombus formation is inhibited” value in data set [6] (dose of 0.3 mg/kg i.v.) is 21%. Also, the thrombus formation result in data set [6] (dose of 3 mg/kg i.v.) is given as “blocked”.
